This note sets out measurements from PubChem BioAssay AID504393 (Southern Research Specialized Biocontainment Screening …, 2011).

Active and inactive are the calls of the source. No rule for the calls is given here.

The assay has as its system MAGI cells cytotoxicity, % cell control, 2% serum. In words: host cell viability for CXCR4-tropic HIV-1 MAGI assay – MAGI cells, 2% serum, TC50, cytotoxicity control for HIV-1 antiviral lead project, dose response (AID 504393).
With `Cc1c2c(=O)n(-c3nc4ccccc4s3)nc-2cc(O)n1Cc1ccc(F)cc1`, the TC50 is 70.4 µM.
For `Cc1c2c(=O)n(-c3nc4ccccc4s3)nc-2cc(O)n1Cc1ccccc1Cl`, the TC50 was 82 µM.
For the compound `O=C(O)c1ccc([C@@H]2Nc3ccc(S(=O)(=O)Nc4cccc5ccccc45)cc3[C@@H]3C=CC[C@@H]32)cc1`, the TC50 was 54.8 µM.
The result for `CS(=O)(=O)C1=NSC2=NC(=O)/C(=C\c3cccn3-c3ccc(Cl)c(Cl)c3)C(=N)N21` reads 56.7 µM; that for `O=C(O)CCC(C(=O)O)N1C(=O)/C(=C\c2ccco2)SC1=S` (centres undefined), > 100 µM (inactive); that for `CS(=O)(=O)C1=NSC2=NC(=O)/C(=C\c3cccn3-c3cccc(Cl)c3)C(=N)N21`, > 100 µM (inactive).
The result for `CCc1ccc(-n2cccc2/C=C2/C(=N)N3C(=NC2=O)SN=C3S(C)(=O)=O)cc1` reads 49.7 µM.
`Nc1sc2ccccc2[n+]1Cc1ccc(C(=O)O)cc1`: the TC50 was > 100 µM (inactive).
In the case of `COc1ccc(-n2cccc2/C=C2/C(=N)N3C(=NC2=O)SN=C3S(C)(=O)=O)cc1Cl` it was 42.4 µM; in that of `COc1ccc(CCn2c(O)cc3nn(-c4nc5ccccc5s4)c(=O)c-3c2C)cc1`, > 100 µM (inactive); in that of `COc1ccccc1Cn1c(O)cc2nn(-c3nc4ccccc4s3)c(=O)c-2c1C`, 45.7 µM.
Regarding `CS(=O)(=O)C1=NSC2=NC(=O)/C(=C\c3cccn3-c3ccc(F)cc3)C(=N)N21`, the TC50 was > 100 µM (inactive).
The result for `COc1cccc(C2C(C(=O)Nc3ccccc3)=C(C)N=c3sc(=Cc4ccc(OCC(=O)O)cc4)c(=O)n32)c1` (centres undefined) reads > 100 µM (inactive); that for `O=C(O)CCCN1C(=O)/C(=C/c2cc3ccccc3o2)SC1=S`, 83.6 µM; that for `COc1ccc(-c2ccc(/C=C3\SC(=S)N(CCCC(=O)O)C3=O)o2)cc1`, > 100 µM (inactive).
As to `CCOC(=O)C1=C(C)N=c2s/c(=C\c3ccc(OCC(=O)O)cc3)c(=O)n2C1c1ccc(Cl)cc1` (centres undefined), the TC50 is > 100 µM (inactive).
As to `COc1cccc(-n2cccc2/C=C2/C(=N)N3C(=NC2=O)SN=C3S(C)(=O)=O)c1`, the TC50 is 57.6 µM.
Consider `CCOC(=O)C1=C(C)N=c2sc(=Cc3ccc(OCC(=O)O)cc3)c(=O)n2C1c1ccccc1` (centres undefined), for which the TC50 is > 100 µM (inactive).
On to `CS(=O)(=O)C1=NSC2=NC(=O)/C(=C\c3cccn3-c3cc(Cl)cc(Cl)c3)C(=N)N21`, for which the TC50 is 36.5 µM.
For `O=C(O)c1ccc(C[n+]2c(-c3ccccc3)csc2Nc2ccccc2)cc1`, the TC50 was 80.6 µM.
Consider `Cc1ccc(-c2ccc(/C=C3\SC(=S)N(CCCC(=O)O)C3=O)o2)cc1`, for which the TC50 was > 100 µM (inactive).
Turning to `CCc1ccc(-c2ccc(/C=C3\SC(=S)N(CCCC(=O)O)C3=O)o2)cc1`, the TC50 is > 100 µM (inactive).
Take `CC1=C(C(=O)OC(C)C)C(c2ccc(Cl)cc2)n2c(s/c(=C\c3ccc(OCC(=O)O)cc3)c2=O)=N1` (centres undefined): the TC50 was > 100 µM (inactive).
For `COc1ccc(Cn2c(O)cc3nn(-c4nc5ccccc5s4)c(=O)c-3c2C)cc1`, the TC50 was 56.3 µM.
With `CCOC(=O)C1=C(c2ccccc2)N=c2s/c(=C\c3ccc(OCC(=O)O)cc3)c(=O)n2C1c1cccc(OC)c1` (centres undefined), the TC50 was 57.5 µM.
As for `O=C(O)CCCN1C(=O)/C(=C/c2ccc(-c3ccc(Cl)c(Cl)c3)o2)SC1=S`, the TC50 is 11.7 µM.
`O=C(O)CCCN1C(=O)/C(=C\c2ccc(-c3cccc(Cl)c3)o2)SC1=S`: the TC50 was 40 µM.
For `O=C(O)CCCN1C(=O)/C(=C/c2ccc(-c3cccc(C(F)(F)F)c3)o2)SC1=S`, the TC50 is > 100 µM (inactive).
As for `CCOC(=O)C1=C(C)N=c2sc(=Cc3ccc(OCC(=O)O)cc3)c(=O)n2C1c1ccc(OC)cc1OC` (centres undefined), the TC50 is > 100 µM (inactive).
For `CCOC(=O)C1=C(C)N=c2s/c(=C\c3ccc(OCC(=O)O)cc3)c(=O)n2C1c1ccc(OC)c(OCC)c1` (centres undefined), the TC50 is > 100 µM (inactive).
As to `CCOC(=O)C1=C(C)N=c2sc(=Cc3ccc(OCC(=O)O)cc3)c(=O)n2C1c1ccccc1OC` (centres undefined), the TC50 was > 100 µM (inactive).
As for `Cc1c2c(=O)n(-c3nc4ccccc4s3)nc-2cc(O)n1CCc1ccc(O)cc1`, the TC50 is 37.6 µM.
On to `CS(=O)(=O)C1=NSC2=NC(=O)/C(=C\c3cccn3-c3cccc(C(F)(F)F)c3)C(=N)N21`, for which the TC50 is 79.5 µM.
Consider `CCOC(=O)C1=C(C)N=c2sc(=Cc3ccc(OCC(=O)O)cc3)c(=O)n2C1c1cc(OC)c(OC)c(OC)c1` (centres undefined), for which the TC50 was > 100 µM (inactive).
In the case of `Cc1c2c(=O)n(-c3nc4ccccc4s3)nc-2cc(O)n1Cc1cccnc1` it was 99.2 µM.
Regarding `CCOc1ccc(-n2cccc2/C=C2/C(=N)N3C(=NC2=O)SN=C3S(C)(=O)=O)cc1`, the TC50 is 42.6 µM.
With `Cc1c2c(=O)n(-c3nc4ccccc4s3)nc-2cc(O)n1CCC(C)C`, the TC50 is 65.1 µM.
Turning to `Cc1c2c(=O)n(-c3nc4ccccc4s3)nc-2cc(O)n1Cc1ccncc1`, the TC50 was 85.9 µM.
As to `Cc1ccc(-n2cccc2/C=C2/C(=N)N3C(=NC2=O)SN=C3S(C)(=O)=O)cc1C`, the TC50 was 48.9 µM.
